Data published in patent publication US20240343699A1, “DERIVATIVES OF SUBSTITUTED MORPHOLINES AND USES THEREOF” (Supernus Pharmaceuticals, Inc., priority 2023, published 2024).
pIC50: −log10 of the molar value. Several values for one entry are separate records, joined by “and”; a condition that tells them apart may be missing. Identical values can stand only once. Like-named read-outs stand apart in the source and are kept apart here.

How the values were obtained:
[1] = 80 mg/kg PO; for Tlast: COMPOUND C (parent) in plasma
[2] = Metabolic stability in human intestinal homogenate; assay type: in vitro ADME; conditions: human intestinal homogenate, 1 μM
Procedure: Incubation Buffer (PBK): 50 mM potassium phosphate buffer (PBK) was prepared from 1 M potassium phosphate buffer, pH 7.2. […] The dilution of 1 mM intermediate was prepared from 10 mM stock with 90% methanol/water, then […] working solutions were prepared by diluting the 1 mM intermediates with 50 mM PBK. […] Prior to use, the stock solutions were brought to room temperature and thoroughly mixed. […] Cofactors Solutions: the cofactor solution was made at 10 mM of NADPH (nicotinamide-adenine dinucleotide phosphate, reduced form) in 50 mM PBK buffer.
(§1) The incubation was carried out in 96-well plates. The intestinal homogenate mixture solution was added to 96-well plates (80 μL/well) in duplicate. […] Reaction was initiated by adding cofactor solution at 10 µL/well. The plates were incubated at 37° C. in a water bath with shaking. […] The final organic solvent content in the incubation was ≤1%.
At specified time points, i.e., 5, 10, 20, 30 and 60 minutes, NCF60 (no cofactor at 60 min, without adding NADPH replaced with 50 mM PBK buffer) reaction was stopped by adding three volumes of stop solution. The time zero (To) samples were prepared by adding three volumes of stop solution to intestinal homogenate samples, followed by addition of test article or control, and cofactor solution 10 μL/well.
Subsequently, 100 μL of supernatant was removed from each well, diluted with 100 μL pure water and analyzed by LC/MS/MS.
A study was conducted to examine the metabolic stability. […] Positive controls: 7-hydroxycoumarin and Testosterone.

[3] = Protein binding in CD-1 mouse plasma (equilibrium dialysis); conditions: dialysis conditions; no binding reported
[4] = Enzyme and uptake assays; assay type: biochemical; conditions: human recombinant; [3H]NE incorporation into cells; read-out: IC50, Norepinephrine transporter uptake (h)
Procedure: A study was conducted to test 5 compounds in cellular and nuclear receptor functional and enzyme and uptake assays.
The results are expressed as a percent of control specific activity
and as a percent inhibition of control specific activity
The IC50 values (concentration causing a half-maximal inhibition of control specific activity), EC50 values (concentration producing a half-maximal increase in control basal activity), and Hill coefficients (nH) were determined by non-linear regression analysis of the inhibition/concentration-response curves generated with mean replicate values using Hill equation curve fitting
where Y=specific activity, A=left asymptote of the curve, D=right asymptote of the curve, C=compound concentration, C50=IC50 or EC50, and nH=slope factor. This analysis was performed using software developed at Cerep (Hill software) and validated by comparison with data generated by the commercial software SigmaPlot® 4.0 for Windows® (© 1997 by SPSS Inc.).
In Vitro Pharmacology. Results showing an inhibition (or stimulation for assays run in basal conditions) higher than 50% were considered to represent significant effects of the test compounds. Results showing an inhibition (or stimulation) between 25% and 50% are indicative of weak to moderate effects. Results showing an inhibition (or stimulation) lower than 25% were not considered significant and mostly attributable to variability of the signal around the control level. […]

[5] = In vitro stability in human plasma; assay type: in vitro ADME; conditions: human plasma, 2.0 μM
Procedure: Test Article Solutions: COMPOUND A, COMPOUND B and COMPOUND C stock solutions at 10 mM were prepared in dimethyl sulfoxide (DMSO). Further dilution with DMSO was made to prepare 2.0 mM. The working solutions of 50 μM was prepared with 20% MeOH/water. […] Prior to use, the stock solutions were brought to room temperature and thoroughly mixed and prepared same as described above.
Incubations were conducted in 96-well plate format. The time points defined for this study are 0, 5, 15, 30 and 60 minutes.
An appropriate volume of plasma from test species were added to a 96-deep well plate, and COMPOUND A, COMPOUND B and COMPOUND C working solution was spiked into the plasma in duplicate to achieve a final concentration of 2.0 μM. For positive controls, the rat plasma was spiked with enalapril, the dog plasma spiked with bisacodyl and the human plasma was spiked with propantheline. All spiked plasma sample plates were incubated in a water bath at 37° C. with shaking.
At the end of each time point, samples were immediately quenched with three volume of cold quenching solution.
A study was conducted to examine the plasma stability. Test Compounds: COMPOUND D, COMPOUND E, and Viloxazine. Positive controls: Enalapril and Propantheline.

[6] = Metabolic stability in rat liver S9; assay type: in vitro ADME, Sprague Dawley rat; design: half-life: dose or concentration left out as unconfirmed
Procedure: Incubation Buffer (PBK): 50 mM potassium phosphate buffer was prepared from 1 M potassium phosphate buffer, pH 7.2. […] The dilution of […] was prepared by 90% methanol/10% DMSO, then 10 μM working solutions were prepared by diluting the 0.1 mM intermediates with 50 mM PBK. […] Prior to use, the stock solutions were brought to room temperature and thoroughly mixed. […] Cofactors Solutions: the mixture of cofactors solution was made at 10 mM of NADPH and 10 mM of UDPGA in PBK buffer.
as §1, with “liver S9 working solutions were” for “intestinal homogenate mixture solution was”, “mixture” for “solution at”, “μL/well.” for “µL/well.”
At specified time points, i.e., 5, 10, 20, 30 and 60 minutes, NCF60 (without adding NADPH (Nicotinamide-adenine dinucleotide phosphate, reduced form) and UDPGA (Uridine 5′-diphosphoglucuronic acid trisodium salt) replaced with PBK buffer reaction was stopped by adding three volumes of stop solution. The time zero (To) samples were prepared by adding three volumes of stop solution to liver S9 samples, followed by addition of test article or control, and cofactor mixture solution 10 μL/well.
Subsequently, 100 μL of supernatant.
Positive controls: 7-ethoxycoumarin and 7-hydroxycoumarin.

[7] = rat liver S9, 1 μM, NCF60 (no cofactors, 60 min)

Compound: CCOc1ccccc1OC[C@@H]1CN(C(=O)OC(OC(=O)[C@H](N)C(C)C)C(C)C)CCO1 (some centres unmarked) [COMPOUND C]
- Clinical observation (tolerability) ([1]; beagle dogs): well tolerated
- plasma concentration of the analog itself ([1]; LLOQ 3.0 ng/mL): well above LLOQ
- Tlast ([1]; female beagle dogs): 16.0 h
- Tlast ([1]; male beagle dogs): 16.0 h
- % Remaining ([2]; 0 min): 100%
- Analyte Peak area/IS Peak area Mean (n = 2) ([2]; 0 min): 0.286
- % Remaining ([2]; 5 min): 4.4%
- Analyte Peak area/IS Peak area Mean (n = 2) ([2]; 5 min): 0.013
- % Remaining ([2]; 10 min): 3.0%
- Analyte Peak area/IS Peak area Mean (n = 2) ([2]; 10 min): 0.009
- % Remaining ([2]; 20 min): 1.3%
- Analyte Peak area/IS Peak area Mean (n = 2) ([2]; 20 min): 0.004
- % Remaining ([2]; 30 min): 0.67%
- Analyte Peak area/IS Peak area Mean (n = 2) ([2]; 30 min): 0.002
- % Remaining ([2]; 60 min): 0.08%
- Analyte Peak area/IS Peak area Mean (n = 2) ([2]; 60 min): 0.000
- % Remaining ([2]; NCF60 (no cofactor at 60 min)): 0.12%
- Analyte Peak area/IS Peak area Mean (n = 2) ([2]; NCF60 (no cofactor at 60 min)): 0.000
- half-life at 1 μM ([2]; pH 7.2): 7.2 min
- microsomal CLint at 1 μM ([2]; pH 7.2, read-out: CLint(HIH)): 192 µL/min/mg
- stability in the mouse plasma [3]: instability
- pIC50 [4]: 5.74
- half-life at 2 μM [5]: > 187 min
- % Remaining ([5]; 0 min): 100%
- Analyte Peak area/IS Peak area Mean (N = 2) ([5]; 0 min): 1.99
- % Remaining ([5]; 5 min): 92.3%
- Analyte Peak area/IS Peak area Mean (N = 2) ([5]; 5 min): 1.84
- % Remaining ([5]; 15 min): 88.3%
- Analyte Peak area/IS Peak area Mean (N = 2) ([5]; 15 min): 1.76
- % Remaining ([5]; 30 min): 86.1%
- Analyte Peak area/IS Peak area Mean (N = 2) ([5]; 30 min): 1.71
- % Remaining ([5]; 60 min): 84.4%
- Analyte Peak area/IS Peak area Mean (N = 2) ([5]; 60 min): 1.68
- half-life ([6]; Sprague Dawley (rat), pH 7.2, rat, dog and human liver S9 incubations (summary over species), read-out: half-lives): 4 to 12 min
- half-life at 1 μM ([6]; Sprague Dawley, pH 7.2, rat liver S9, 1 μM): 8.53 min
- microsomal CLint at 1 μM ([6]; Sprague Dawley, pH 7.2, rat liver S9, 1 μM, read-out: CLint(LS9)): 163 µL/min/mg
- % Remaining ([6]; rat liver S9, 1 μM, 0 min): 100%
- Analyte Peak area/IS Peak area Mean × 100 (n = 2) ([6]; rat liver S9, 1 μM, 0 min): 6.55
- % Remaining ([6]; rat liver S9, 1 μM, 5 min): 19%
- Analyte Peak area/IS Peak area Mean × 100 (n = 2) ([6]; rat liver S9, 1 μM, 5 min): 1.24
- % Remaining ([6]; rat liver S9, 1 μM, 10 min): 13%
- Analyte Peak area/IS Peak area Mean × 100 (n = 2) ([6]; rat liver S9, 1 μM, 10 min): 0.834
- % Remaining ([6]; rat liver S9, 1 μM, 20 min): 5.6%
- Analyte Peak area/IS Peak area Mean × 100 (n = 2) ([6]; rat liver S9, 1 μM, 20 min): 0.365
- % Remaining ([6]; rat liver S9, 1 μM, 30 min): 3.5%
- Analyte Peak area/IS Peak area Mean × 100 (n = 2) ([6]; rat liver S9, 1 μM, 30 min): 0.228
- % Remaining ([6]; rat liver S9, 1 μM, 60 min): 0.39% and 0.4%
- Analyte Peak area/IS Peak area Mean × 100 (n = 2) ([6]; rat liver S9, 1 μM, 60 min): 0.026
- % Remaining [6, 7]: 3.5%
- Analyte Peak area/IS Peak area Mean × 100 (n = 2) [6, 7]: 0.228
